Source: patent publication US12018021B2 (UCB Biopharma SRL, priority 2018, dated 2024)

Molecular target: IgE-Tb / sFcεRIα-Y131A-AF488 (Homo sapiens, UniProt P01854, N146Q/N252Q)
Assay: IgE-Tb / sFcεRIα-Y131A-AF488 FRET assay (protocol for examples 234 to 501)
Type: binding
Details: examples 234 to 501: compound with IgE-Tb 30 minutes before sFcεRIα-Y131A-AF488, incubated 18 hours at room temperature; read-out: Y131A FRET IC50 range
Protocol: For examples 234 to 501, the assay was conducted according to the following: Each assay reaction was conducted in a volume of 25 μl in a 384-well half-volume plate. 10 point compound serial dilutions (3-fold) were generated in DMSO at a concentration of ×50 that of the final assay concentration (FAC). Compound solutions were then prepared by diluting 10-fold in assay buffer. For the assay, 5l of diluted compound was added to 10 μl of IgE-Tb and incubated for 30 minutes before the addition of 10 μ[…]. FRET reagents FACs were 5 nM IgE-Tb, 25 nM […]. Usually the top FAC of compound in the assay was 10 μM. The final DMSO concentration was 2%. […] The maximum FRET signal (MAX) was measured in wells containing FRET reagents but no compound. The assay was incubated for 18 hours at room temperature, protected from light and evaporation, and with gentle agitation. Measurement of FRET for each well was carried out by exciting at 337 nm and measuring emission at 490/520 nm using a PHERAstar FSX plate reader (BMG Labtech). FRET ratio was calculated as follows: Emission at 520/7Emission at 490×1000. The FRET ratio was used for the data analysis. […] Z' above 0.5 was considered a good assay. Background signal (MIN) was subtracted from all wells. […] Percent inhibition was plotted against compound concentration. IC50 values for each compound were determined using four parameter logistic fit model using the XLFIT5 software package.

IgE-Tb / sFcεRIα-Y131A-AF488, sequence (P01854 whole entry N146Q/N252Q): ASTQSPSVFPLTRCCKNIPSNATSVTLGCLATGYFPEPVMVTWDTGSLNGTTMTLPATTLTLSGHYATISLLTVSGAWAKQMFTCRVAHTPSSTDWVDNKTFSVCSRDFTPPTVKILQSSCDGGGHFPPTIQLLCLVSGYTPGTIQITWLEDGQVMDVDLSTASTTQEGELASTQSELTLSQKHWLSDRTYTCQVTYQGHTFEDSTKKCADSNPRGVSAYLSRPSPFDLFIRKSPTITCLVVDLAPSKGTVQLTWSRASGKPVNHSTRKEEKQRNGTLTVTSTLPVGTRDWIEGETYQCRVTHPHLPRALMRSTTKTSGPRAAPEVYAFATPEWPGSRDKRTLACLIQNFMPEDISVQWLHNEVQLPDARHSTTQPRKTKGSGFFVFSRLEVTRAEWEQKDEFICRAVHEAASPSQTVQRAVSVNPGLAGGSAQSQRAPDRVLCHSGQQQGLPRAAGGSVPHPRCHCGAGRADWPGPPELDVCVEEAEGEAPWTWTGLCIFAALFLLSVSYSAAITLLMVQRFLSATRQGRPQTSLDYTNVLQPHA

Structure (SMILES)	IC50
Cc1c(Nc2nncn2[C@H]2CCc3sc(NC(=O)C4CC4)c(C(=O)NCC4CC4)c3C2)cccc1S(C)(=N)=O (mixture of isomers) [Example 235, (5S)-2-cyclopropaneamido-N-(cyclopropylmethyl)-5-[3-({3-[imino(methyl)oxo-lambda6-sulfanyl]-2-methylphenyl}amino)-4H-1,2,4-triazol-4-yl]-4,5,6,7-tetrahydro-1-benzothiophene-3-carboxamide]	< 1 µM
CC(=O)N1CCC(C)(Nc2nncn2[C@H]2CCc3sc(NC(=O)C4CC4)c(C(=O)NCC4CC4)c3C2)C1 (mixture of isomers) [Example 238, (5S)-5-{3-[(1-acetyl-3-methylpyrrolidin-3-yl)amino]-4H-1,2,4-triazol-4-yl}-2-cyclopropaneamido-N-(cyclopropylmethyl)-4,5,6,7-tetrahydro-1-benzothiophene-3-carboxamide]	< 1 µM
CS(=N)(=O)c1cccc(Nc2nncn2[C@H]2CCc3sc(NC(=O)C4CC4)c(C(=O)NCC4CC4)c3C2)c1 (mixture of isomers) [Example 252, (5S)-2-(cyclopropanecarbonylamino)-N-(cyclopropylmethyl)-5-[3-[3-(methylsulfonimidoyl)anilino]-1,2,4-triazol-4-yl]-4,5,6,7-tetrahydrobenzothiophene-3-carboxamide]	< 1 µM
Cc1ccc(C2CC(Nc3nncn3[C@H]3CCc4sc(NC(=O)C5CC5)c(C(=O)NCC5CC5)c4C3)C2)cn1 (mixture of isomers) [Example 275, (5S)-2-(cyclopropanecarbonylamino)-N-(cyclopropylmethyl)-5-[3-[[3-(6-methyl-3-pyridyl)cyclobutyl]amino]-1,2,4-triazol-4-yl]-4,5,6,7-tetrahydrobenzothiophene-3-carboxamide]	< 1 µM
Cn1nc(OC(F)F)cc1Nc1nncn1[C@H]1CCc2sc(NC(=O)C3CC3(F)F)c(C(=O)NCC3CC3)c2C1 (mixture of isomers) [Example 344, (5S)—N-(cyclopropylmethyl)-2-[(2,2-difluorocyclopropanecarbonyl)amino]-5-[3-[[5-(difluoromethoxy)-2-methylpyrazol-3-yl]amino]-1,2,4-triazol-4-yl]-4,5,6,7-tetrahydro-1-benzothiophene-3-carboxamide]	< 1 µM
Cn1nc(OC(F)F)cc1Nc1nncn1[C@H]1CCc2sc(NC(=O)[C@H]3C[C@H]3F)c(C(=O)NCC3CC3)c2C1 (mixture of isomers) [Example 348, (5S)—N-(cyclopropylmethyl)-5-[3-[[5-(difluoromethoxy)-2-methylpyrazol-3-yl]amino]-1,2,4-triazol-4-yl]-2-[[(1RS,2RS)-2-fluorocyclopropanecarbonyl]amino]-4,5,6,7-tetrahydro-1-benzothiophene-3-carboxamide]	< 1 µM
Cn1nc(C(F)(F)F)cc1Nc1nncn1[C@H]1CCc2sc(NC(=O)[C@H]3C[C@H]3F)c(C(=O)NCC3CC3)c2C1 (mixture of isomers) [Example 355, (5S)—N-(cyclopropylmethyl)-2-[[(1RS,2RS)-2-fluorocyclopropanecarbonyl]amino]-5-[3-[[2-methyl-5-(trifluoromethyl)pyrazol-3-yl]amino]-1,2,4-triazol-4-yl]-4,5,6,7-tetrahydro-1-benzothiophene-3-carboxamide]	< 1 µM
Cn1nc(C(F)F)cc1Nc1nncn1[C@H]1CCc2sc(NC(=O)[C@H]3C[C@H]3F)c(C(=O)NCC3CC3)c2C1 (mixture of isomers) [Example 361, (5S)—N-(cyclopropylmethyl)-5-[3-[[5-(difluoromethyl)-2-methylpyrazol-3-yl]amino]-1,2,4-triazol-4-yl]-2-[[(1RS,2RS)-2-fluorocyclopropanecarbonyl]amino]-4,5,6,7-tetrahydro-1-benzothiophene-3-carboxamide]	< 1 µM
Cn1nc(C(F)F)cc1Nc1nncn1[C@H]1CCc2sc(NC(=O)C3CC3(F)F)c(C(=O)NCC3CC3)c2C1 (mixture of isomers) [Example 364, (5S)—N-(cyclopropylmethyl)-2-[(2,2-difluorocyclopropanecarbonyl)amino]-5-[3-[[5-(difluoromethyl)-2-methylpyrazol-3-yl]amino]-1,2,4-triazol-4-yl]-4,5,6,7-tetrahydro-1-benzothiophene-3-carboxamide]	< 1 µM
CC1CC1C(=O)Nc1sc2c(c1C(=O)NCC1CC1)C[C@@H](n1cnnc1Nc1cc(C(F)F)nn1C)CC2 (mixture of isomers) [Example 369, (5S)—N-(cyclopropylmethyl)-5-[3-[[5-(difluoromethyl)-2-methylpyrazol-3-yl]amino]-1,2,4-triazol-4-yl]-2-[(2-methylcyclopropanecarbonyl)amino]-4,5,6,7-tetrahydro-1-benzothiophene-3-carboxamide]	< 1 µM
Cn1nc(C(F)F)cc1Nc1nncn1[C@H]1CCc2sc(NC(=O)C3CC3)c(C(=O)NCC3CC3(F)F)c2C1 (mixture of isomers) [Example 381, (5S)-2-(cyclopropanecarbonylamino)-N-[(2,2-difluorocyclopropyl)methyl]-5-[3-[[5-(difluoromethyl)-2-methylpyrazol-3-yl]amino]-1,2,4-triazol-4-yl]-4,5,6,7-tetrahydro-1-benzothiophene-3-carboxamide]	< 1 µM
Cn1nc(C(F)F)cc1Nc1nncn1[C@H]1CCc2sc(NC(=O)C3CC3)c(C(=O)NCC3CC34CC4)c2C1 (mixture of isomers) [Example 384, (5S)-2-(cyclopropanecarbonylamino)-5-[3-[[5-(difluoromethyl)-2-methylpyrazol-3-yl]amino]-1,2,4-triazol-4-yl]-N-(spiro[2.2]pentan-2-ylmethyl)-4,5,6,7-tetrahydro-1-benzothiophene-3-carboxamide]	< 1 µM
Cn1nc(C(F)(F)F)cc1Nc1nncn1[C@H]1CCc2sc(NC(=O)[C@H]3C[C@H]3F)c(C(=O)NCC3CC3(F)F)c2C1 (mixture of isomers) [Example 396, (5S)—N-[(2,2-difluorocyclopropyl)methyl]-2-[[(1R,2R)-2-fluorocyclopropanecarbonyl]amino]-5-[3-[[2-methyl-5-(trifluoromethyl)pyrazol-3-yl]amino]-1,2,4-triazol-4-yl]-4,5,6,7-tetrahydro-1-benzothiophene-3-carboxamide]	< 1 µM
Cn1nc(C(F)(F)F)cc1Nc1nncn1[C@H]1CCc2sc(NC(=O)[C@H]3C[C@H]3F)c(C(=O)NC[C@H]3C[C@H](F)C3)c2C1 (mixture of isomers) [Example 400, (5S)—N-[trans-(3-fluorocyclobutyl)methyl]-2-[[(1R,2R)-2-fluorocyclopropanecarbonyl]amino]-5-[3-[[2-methyl-5-(trifluoromethyl)pyrazol-3-yl]amino]-1,2,4-triazol-4-yl]-4,5,6,7-tetrahydro-1-benzothiophene-3-carboxamide]	< 1 µM
Cn1nc(C(F)F)cc1Nc1nncn1[C@H]1CCc2sc(NC(=O)[C@H]3CC34CC4)c(C(=O)NCC3CC3(F)F)c2C1 (mixture of isomers) [Example 408, (5S)—N-[(2,2-Difluorocyclopropyl)methyl]-5-[3-[[5-(difluoromethyl)-2-methylpyrazol-3-yl]amino]-1,2,4-triazol-4-yl]-2-[[(2S)-spiro [2.2]pentane-2-carbonyl]amino]-4,5,6,7-tetrahydro-1-benzothiophene-3-carboxamide]	< 1 µM
Cn1nc(C(F)F)cc1Nc1nncn1[C@H]1CCc2sc(NC(=O)[C@H]3CC34CC4)c(C(=O)NC3CC34CC4)c2C1 (mixture of isomers) [Example 411, (5S)-5-[3-[[5-(Difluoromethyl)-2-methylpyrazol-3-yl]amino]-1,2,4-triazol-4-yl]-2-[[(2S)-spiro[2.2]pentane-2-carbonyl]amino]-N-spiro[2.2]pentan-2-yl-4,5,6,7-tetrahydro-1-benzothiophene-3-carboxamide]	< 1 µM
CCOC(=O)c1c(NC(=O)C2CC23CC3)sc2c1C[C@@H](n1cnnc1Nc1cc(C(F)F)nn1C)CC2 (mixture of isomers) [Example 417a, Ethyl (5S)-5-[3-[[5-(difluoromethyl)-2-methyl-pyrazol-3-yl]amino]-1,2,4-triazol-4-yl]-2-(spiro[2.2]pentane-2-carbonylamino)-4,5,6,7-tetrahydrobenzothiophene-3-carboxylate]	< 1 µM
Cn1nc(OC(F)F)cc1Nc1nncn1[C@H]1CCc2sc(NC(=O)C3CC3)c(C(=O)NC3CC34CC4)c2C1 (mixture of isomers) [Example 452, (5S)-2-(cyclopropanecarbonylamino)-5-[3-[[5-(difluoromethoxy)-2-methylpyrazol-3-yl]amino]-1,2,4-triazol-4-yl]-N-spiro[2.2]pentan-2-yl-4,5,6,7-tetrahydro-1-benzothiophene-3-carboxamide]	< 1 µM
Cn1nc(OC(F)F)cc1Nc1nncn1[C@H]1CCc2sc(NC(=O)C3CC3)c(C(=O)NC[C@H]3C[C@H]3F)c2C1 (mixture of isomers) [Example 454, (5S)-2-(cyclopropanecarbonylamino)-5-[3-[[5-(difluoromethoxy)-2-methylpyrazol-3-yl]amino]-1,2,4-triazol-4-yl]-N-[[(1RS,2RS)-2-fluorocyclopropyl]methyl]-4,5,6,7-tetrahydro-1-benzothiophene-3-carboxamide]	< 1 µM
